Test results from PubChem BioAssay (NCI).
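48-hour exposure; five concentrations; linearly interpolated endpoints. GI50: concentration for 50% inhibition of growth. TGI denotes the concentration required for complete inhibition of growth.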

Columns and labels:
Test in all cases: NCI anticancer screen, dose series, 48 h
HCT-116 colon = system: HCT-116 colon
IGROV1 ovarian = system: IGROV1 ovarian
SR leukemia = system: SR leukemia
HOP-92 NSCLC = system: HOP-92 NSCLC
UO-31 renal = system: UO-31 renal
KM12 colon = system: KM12 colon
MALME-3M melanoma = system: MALME-3M melanoma
MDA-MB-435 = system: MDA-MB-435
SF-268 CNS = system: SF-268 CNS
SNB-19 CNS = system: SNB-19 CNS
SNB-75 CNS = system: SNB-75 CNS
NCI/ADR-RES ovarian = system: NCI/ADR-RES ovarian
SK-MEL-5 melanoma = system: SK-MEL-5 melanoma
BT-549 breast = system: BT-549 breast
TK-10 renal = system: TK-10 renal
K-562 leukemia = system: K-562 leukemia
MCF7 breast = system: MCF7 breast
CCRF-CEM leukemia = system: CCRF-CEM leukemia
PC-3 prostate = system: PC-3 prostate
LOX IMVI melanoma = system: LOX IMVI melanoma
UACC-62 melanoma = system: UACC-62 melanoma
UACC-257 melanoma = system: UACC-257 melanoma
HT29 colon = system: HT29 colon
SF-295 CNS = system: SF-295 CNS
M14 melanoma = system: M14 melanoma
T-47D breast = system: T-47D breast
NCI-H460 lung = system: NCI-H460 lung
A498 renal = system: A498 renal
EKVX NSCLC = system: EKVX NSCLC
COLO 205 colon = system: COLO 205 colon
OVCAR-4 ovarian = system: OVCAR-4 ovarian
RPMI-8226 leukemia = system: RPMI-8226 leukemia
HL-60(TB) leukemia = system: HL-60(TB) leukemia
OVCAR-5 ovarian = system: OVCAR-5 ovarian
SK-OV-3 ovarian = system: SK-OV-3 ovarian
SN12C renal = system: SN12C renal
RXF 393 renal = system: RXF 393 renal
A549 NSCLC = system: A549 NSCLC
HCC-2998 colon = system: HCC-2998 colon
OVCAR-8 ovarian = system: OVCAR-8 ovarian
SF-539 CNS = system: SF-539 CNS
MDA-MB-231 breast = system: MDA-MB-231 breast
SK-MEL-2 melanoma = system: SK-MEL-2 melanoma
SK-MEL-28 melanoma = system: SK-MEL-28 melanoma
U251 CNS = system: U251 CNS
MOLT-4 leukemia = system: MOLT-4 leukemia
SW-620 colon = system: SW-620 colon
HCT-15 colon = system: HCT-15 colon
CAKI-1 renal = system: CAKI-1 renal
HOP-62 NSCLC = system: HOP-62 NSCLC
786-0 renal = system: 786-0 renal
OVCAR-3 ovarian = system: OVCAR-3 ovarian
NCI-H522 lung = system: NCI-H522 lung
DU-145 prostate = system: DU-145 prostate
NCI-H226 lung = system: NCI-H226 lung
ACHN renal = system: ACHN renal
HS 578T breast = system: HS 578T breast

With `COc1ccc(CCOc2cc3c(cc2OC)CCN(C(=O)NCc2cocn2)C3c2ccc(C)cc2C)cc1` (centres undefined) the GI50 (HCT-116 colon) was 404 nM, the TGI (HCT-116 colon) was 21800 nM and the GI50 (IGROV1 ovarian) was 905 nM. It also gave a TGI (IGROV1 ovarian) greater than 100000 nM, a GI50 (SR leukemia) of 341 nM and a TGI (SR leukemia) of 2030 nM. For the same compound, the GI50 (HOP-92 NSCLC) was 3470 nM, the TGI (HOP-92 NSCLC) was 18200 nM and the GI50 (UO-31 renal) was 1180 nM. It also gave a TGI (UO-31 renal) of 14200 nM, a GI50 (KM12 colon) of 542 nM and a TGI (KM12 colon) of 8200 nM. For the same compound, the GI50 (MALME-3M melanoma) was 1490 nM, the TGI (MALME-3M melanoma) was 11700 nM and the GI50 (MDA-MB-435) was 296 nM. The TGI (MDA-MB-435) was 919 nM, the GI50 (SF-268 CNS) was 940 nM and the TGI (SF-268 CNS) was 8920 nM. The GI50 (SNB-19 CNS) was 1600 nM, the TGI (SNB-19 CNS) was 21900 nM and the GI50 (SNB-75 CNS) was 761 nM. For the same compound, the TGI (SNB-75 CNS) was 5260 nM, the GI50 (NCI/ADR-RES ovarian) was 610 nM and the TGI (NCI/ADR-RES ovarian) was greater than 34400 nM. For the same compound, the GI50 (SK-MEL-5 melanoma) was 509 nM, the TGI (SK-MEL-5 melanoma) was 1390 nM and the GI50 (BT-549 breast) was 1010 nM. It also gave a TGI (BT-549 breast) of 3570 nM, a GI50 (TK-10 renal) of 2960 nM and a TGI (TK-10 renal) of 26700 nM. For the same compound, the GI50 (K-562 leukemia) was 355 nM, the TGI (K-562 leukemia) was greater than 55200 nM and the GI50 (MCF7 breast) was 452 nM. For the same compound, the TGI (MCF7 breast) was greater than 38700 nM, the GI50 (CCRF-CEM leukemia) was 458 nM and the TGI (CCRF-CEM leukemia) was 9660 nM. The GI50 (PC-3 prostate) was 631 nM, the TGI (PC-3 prostate) was greater than 35100 nM and the GI50 (LOX IMVI melanoma) was 388 nM. The TGI (LOX IMVI melanoma) was 4610 nM, the GI50 (UACC-62 melanoma) was 495 nM and the TGI (UACC-62 melanoma) was 5930 nM. It also gave a GI50 (UACC-257 melanoma) of 1390 nM, a TGI (UACC-257 melanoma) of 19800 nM and a GI50 (HT29 colon) of 371 nM. The TGI (HT29 colon) was 2150 nM, the GI50 (SF-295 CNS) was 897 nM and the TGI (SF-295 CNS) was 7030 nM. The GI50 (M14 melanoma) was 765 nM, the TGI (M14 melanoma) was 5740 nM and the GI50 (T-47D breast) was 1060 nM. The TGI (T-47D breast) was 9020 nM, the GI50 (NCI-H460 lung) was 374 nM and the TGI (NCI-H460 lung) was 3810 nM. The GI50 (A498 renal) was 1480 nM, the TGI (A498 renal) was 6430 nM and the GI50 (EKVX NSCLC) was 3140 nM. It also gave a TGI (EKVX NSCLC) greater than 100000 nM, a GI50 (COLO 205 colon) of 835 nM and a TGI (COLO 205 colon) of 2760 nM. For the same compound, the GI50 (OVCAR-4 ovarian) was 1510 nM, the TGI (OVCAR-4 ovarian) was greater than 100000 nM and the GI50 (RPMI-8226 leukemia) was 370 nM. The TGI (RPMI-8226 leukemia) was 1660 nM, the GI50 (HL-60(TB) leukemia) was 273 nM and the TGI (HL-60(TB) leukemia) was 833 nM. It also gave a GI50 (OVCAR-5 ovarian) of 1350 nM, a TGI (OVCAR-5 ovarian) greater than 100000 nM and a GI50 (SK-OV-3 ovarian) of 1260 nM. The TGI (SK-OV-3 ovarian) was 40700 nM, the GI50 (SN12C renal) was 831 nM and the TGI (SN12C renal) was 4850 nM. It also gave a GI50 (RXF 393 renal) of 425 nM, a TGI (RXF 393 renal) of 2540 nM and a GI50 (A549 NSCLC) of 1080 nM. For the same compound, the TGI (A549 NSCLC) was greater than 100000 nM, the GI50 (HCC-2998 colon) was 1320 nM and the TGI (HCC-2998 colon) was greater than 35000 nM. The GI50 (OVCAR-8 ovarian) was 358 nM, the TGI (OVCAR-8 ovarian) was 10100 nM and the GI50 (SF-539 CNS) was 346 nM. It also gave a TGI (SF-539 CNS) of 1630 nM, a GI50 (MDA-MB-231 breast) of 834 nM and a TGI (MDA-MB-231 breast) of 6490 nM. It also gave a GI50 (SK-MEL-2 melanoma) of 946 nM, a TGI (SK-MEL-2 melanoma) of 3890 nM and a GI50 (SK-MEL-28 melanoma) of 1010 nM. The TGI (SK-MEL-28 melanoma) was 7290 nM, the GI50 (U251 CNS) was 605 nM and the TGI (U251 CNS) was 4530 nM. It also gave a GI50 (MOLT-4 leukemia) of 537 nM, a TGI (MOLT-4 leukemia) greater than 24800 nM and a GI50 (SW-620 colon) of 507 nM. It also gave a TGI (SW-620 colon) greater than 100000 nM, a GI50 (HCT-15 colon) of 407 nM and a TGI (HCT-15 colon) greater than 37500 nM. For the same compound, the GI50 (CAKI-1 renal) was 740 nM, the TGI (CAKI-1 renal) was 7240 nM and the GI50 (HOP-62 NSCLC) was 1020 nM. The TGI (HOP-62 NSCLC) was 17100 nM, the GI50 (786-0 renal) was 617 nM and the TGI (786-0 renal) was 8110 nM. It also gave a GI50 (OVCAR-3 ovarian) of 603 nM, a TGI (OVCAR-3 ovarian) of 10300 nM and a GI50 (NCI-H522 lung) of 243 nM. It also gave a TGI (NCI-H522 lung) of 634 nM, a GI50 (DU-145 prostate) of 790 nM and a TGI (DU-145 prostate) of 5890 nM. The GI50 (NCI-H226 lung) was 1020 nM, the TGI (NCI-H226 lung) was 5160 nM and the GI50 (ACHN renal) was 628 nM. The TGI (ACHN renal) was 8890 nM, the GI50 (HS 578T breast) was 845 nM and the TGI (HS 578T breast) was 5150 nM.
